# Measured values taken from publication PMC11106165, “Repurposing the KCa3.1 Blocker Senicapoc for Ischemic Stroke” (Translational Stroke Research, 2023).
# “And” between values parts separate entries of the source, which are not always exact repeats. Equal values may be shown once.
# Columns and labels:
# [1] = Plasma protein binding by rapid equilibrium dialysis; assay type: in vitro ADME; conditions: mouse plasma, triplicate
# Protocol: (§1) In order to determine whether senicapoc sufficiently engages its target, additional mice were subjected to 60 min of MCAO, treated with 40 mg/kg senicapoc IP 12 h after reperfusion and then sacrificed 1 h, 4 h, and 12 h later. Mice were deeply anesthetized with isoflurane, and blood was collected from the vena cava into EDTA tubes, and then transcardially perfused with 30 mL of saline. The brain was removed, and the forebrain divided into ipsi- and contralateral side. Brain and plasma samples were stored at − 80 °C pending analysis and then prepared and analyzed as previously described using a Waters Acquity UPLC (Waters, NY) equipped with a Acquity UPLC BEH 1.7 μm C-18 column interfaced to a TSQ Quantum Access Max mass spectrometer (Thermo Fisher Scientific, MA). Senicapoc was analyzed by the selective reaction monitoring transition of its molecular ion peak 324.09 (M + 1) into 228.07, 200.07, 183.11, and 122.18 m/z. An 8-point calibration curve ranging from 50 nM to 10 μM was used for quantification. Senicapoc plasma protein binding was determined with mouse plasma or mouse brain extract in triplicate using rapid equilibrium devices with a molecular weight cutoff of 8 kD (RED, Fisher Scientific).
# [2] = humans; cited from earlier work
# [3] = system: MMC (mouse microglial cell line); assay: RT-qPCR of inflammatory markers in LPS-stimulated MMC; assay type: cell-based; conditions: 24 h 100 ng/mL LPS
# Protocol: (§2) An immortalized mouse microglial cell (MMC) line was kindly provided by Dr. D.T. Golenbock (University of Massachusetts Medical School, Worcester, MA) and previously used by our laboratory. Cells were cultured in Gibco’s Dulbecco’s modified Eagle’s Medium (DMEM, high glucose, L-glutamine, high pyruvate) with 5% CO2 at 37° with 1% penicillin/streptomycin and 10% fetal bovine serum. For the qPCR experiments, cells were seeded at 200,000 cells/mL; 24 h later, medium was changed to DMEM with 2% FBS and cells were stimulated with 100 ng/mL lipopolysaccharide (LPS), in the presence or absence of senicapoc, or a 0.2% DMSO control. Cells were pre-incubated with senicapoc for 1 h prior to stimulation and harvested 24 h after stimulation.
# After MRIs were completed, mice were euthanized with an overdose of isoflurane, brains harvested, split into ipsilateral and contralateral hemispheres, and immediately frozen with liquid N2. Brain hemispheres were homogenized in mortar and pestles with liquid N2. RNA was extracted from brain homogenates (Fig. 7b) or MMC cell pellets (Fig. 2) with Trizol (ThermoFisher, Catalog # 15,596,026) according to the manufacturer’s protocol. RNA purity and concentration were assessed using a Nanodrop Spectrophotometer ND-1000 (Marshall Scientific). The 260 nm/280 nm absorption ratios for the samples ranged from 1.95 to 2.00. Subsequently, a cDNA library was made with a High-Capacity cDNA Reverse Transcription Kit (ThermoFisher Scientific, Catalog# 4,374,967), with 2 µg of total RNA per […]. Reactions were carried out in a PTC-200 Peltier Thermal Cycler; the conditions were as follows: 25 °C for 10 min, 37 °C for 120 min, 85 °C for 5 min, with final storage at 4 °C. RT-qPCR reactions were conducted in an Applied Biosystems Viia7 Real-Time PCR System using Maxima SYBR Green/ROX qPCR Master Mix (ThermoFisher Scientific, Catalog #K022) and with the recommended three-step cycling protocol. […] Fold change was calculated by the ∆∆Ct method. […]
# [4] = Brain tissue extract binding by rapid equilibrium dialysis; assay type: in vitro ADME; conditions: mouse brain extract, triplicate
# Protocol: as §1
# KCa3.1 = biological target: T1, KCa3.1 (Mus musculus, UniProt O89109); assay: Whole-cell patch-clamp of KCa3.1 currents in mouse microglial cells (MMC); assay type: cell-based; conditions: 1 µM free Ca2+, ramp -120 to +40 mV, mean ± 95% confidence interval, n = 4, read-out: IC50 for block of microglial KCa3.1 currents
# T1 construct: endogenous in cells; host or cells: immortalized mouse microglial cell (MMC) line
# Protocol: as §2
# MMCs were plated on poly-lysine-coated glass coverslips and KCa3.1 currents recorded in the whole-cell mode of the patch-clamp technique with an EPC-10 HEKA amplifier and 1 microM of free Ca^2+ in the pipette solution as previously described.
smiles,measurement,setting,value
NC(=O)C(c1ccccc1)(c1ccc(F)cc1)c1ccc(F)cc1 [senicapoc],binding to plasma protein,[1],96.8 ± 0.5%
same,half-life,[2],12 days
same,induction of inflammasome component NLRP3,[3],prevented induction
same,mRNA levels of iNOS and COX-2,[3],significantly reduced
same,"mRNA expression of IL-1β, TNF-α, IL-6 and IL-10",[3]; 1 h pre-incubation,concentration-dependently reduced
same,binding to brain tissue extract,[4],98.1 ± 0.5%
same,IC50,KCa3.1,7 nM and 6.97 nM
